Experimental data published in patent US20230145342A1, “COMBINATORY TREATMENT” (AALTO UNIVERSITY FOUNDATION SR, priority 2020, published 2023).
Values after ≈ are worked out from the molar mass of the structure shown. “Also recorded” adds a separate entry of the source.

Tests used:
[1] = Analytical ultracentrifuge sedimentation velocity analysis of P[5]a with LPS; format: binding, Pseudomonas aeruginosa; conditions: 135 μM P[5]a and 35 μM LPS, UV absorbance at 305 nm
Procedure: A clear initial peak of unbound P[5]a can be observer at low molecular weight (2260 Da), followed by a long and polydisperse collection of peaks, ranging from low molecular weight (S), to very high molecular weight (60.000 kDa) See Example 6.
The interaction of P[5]a with lipopolysaccharides of P. aeruginosa, strain PA10 was measured using AUC.
Analytical ultracentrifugation (AUC) is based on sedimentation of colloidal particles in a centrifugal field. During centrifugation particles move toward the bottom of the measuring cell. This movement leads to redistribution of particles along the measuring cell, which in turn can be expressed as a change in concentration along the measuring cell. The absorbance detector was used to follow the changes caused by centrifugation (absorbance is proportional to concentration). In simple words, in AUC the inventors measure how concentration changes during centrifugation, so they collect concentration profiles. Interaction between particles can be measured as a result of changes in the sedimentation profiles. […]
The spectra of both P[5]a and LPS from P. aeruginosa were first analysed separately (see FIG. 12 a and b). […] Because only the sedimentation of P[5]a was detected at 305 nm, the inventors were certain that any changes observed in the sedimentation profile, come from interactions between P[5]a and other particles. […]

[2] = tested on: resistant P. aeruginosa strains PA 5550, PA 5842, PA 5827, PA 5832, PA 5834 and PA 5539; assay: MIC of four antibiotics in presence or absence of P[5]a, Mueller broth; format: cell-based, Pseudomonas aeruginosa; conditions: six resistant strains, presence vs absence of P[5]a
Excerpt: (§1) In FIG. 4 with P. aeruginosa strain PA 5834, P[5]a made the bacterium classify as “susceptible” again, whereas without P[5]a it was fully “resistant” to the antibiotics ceftazidime and cefepime (even growing in the highest concentration we tested). This could have major implications, because there have been many encounters already of “Pan-Drug resistant bacteria” bacteria that are classified as “resistant” to all known antibiotics. They are basically untreatable by current standards. P[5]a Virulence inhibitors, might make those bacteria susceptible again for treatment. In FIG. 5 with P. aeruginosa strain PA 5539, the overall resistance profile of the bacterium was much lower. […] Further testing was done on six resistant P. aeruginosa strains from the Helsinki hospital collection, PA 5550, PA 5842, PA 5827, PA 5832, PA 5834 and PA 5539 with four different antibiotics (amikacin, cefepime, ceftazidime and meropenem).

Pseudomonas aeruginosa = assay: RNA sequencing / Gene Set Enrichment Analysis with and without P[5]a; format: cell-based; conditions: bacterial RNA with vs without P[5]a
Excerpt: Changes in gene expression levels are grouped in specific “gene sets”, which group all genes related to a specific function, for instance biofilm formation.
Pseudomonas aeruginosa is known to be one of the most problematic pathogenic micro-organisms. Indeed, in a laboratory environment, P. aeruginosa is resistant to nearly all antibiotics within a period of 3 to 4 days. Comparing the sequencing results of the bacterial RNA, with and without a pillarene[5]a (P[5]a, CAS No. 1351445-28-7), allowed the inventors to identify the processes that are affected by comparison with pre-determined gene set terms from the “KEGG pathway analysis” and the “GO Ontology” (see FIG. 1). These gene sets contain all the genes associated with a certain term, for instance “Biofilm”, and the inventors referenced all the genes affected by P[5]a, to these gene sets.

P. aeruginosa PAO1 [3] = assay: Pyocyanin toxin production followed over 14 days; format: cell-based, Pseudomonas aeruginosa; conditions: for pyocyanin toxin formation: throughout 14 days
Excerpt: (§2) The effect of P[5]a on encountering resistance development in a pathogenic Gram-negative bacterium, Pserudomonas aeruginosa, strain PA01 was studied over 14-day period. The development of resistance over 14 continuous days by the pathogen PAO1 towards treatment with four clinically relevant antibiotics (meropenem, cefepime, aztreonam and tobramycin) and P[5]a was compared. […] In all antibiotic treatments, reduced susceptibility was observed from day 4 onwards, with complete resistance to all treatments after 12 days.

[4] = tested on: Pserudomonas aeruginosa, strain PA01; assay: Biofilm formation; format: cell-based, Pseudomonas aeruginosa; conditions: P[5]a in high concentrations
Procedure: The effect of P[5]a on the formation of biofilm by a pathogenic Gram-negative bacterium, Pserudomonas aeruginosa, strain PA01 was measured.
Biofilm is, alongside pyocyanin production, an important indicator of virulence in P. aeruginosa.

[5] = tested on: MDR resistant clinical isolates; assay: Coadministered antibiotics with P[5]a in MDR resistant clinical isolates (Example 8); format: cell-based
Excerpt: (§3) The effect of P[5]a on the penetration and efficacy of coadministered antibiotics Amikacin (a), Cefepime (b), Ceftazidime (c) and Meropenem (d) in MDR resistant clinical isolates were studied.

[6] = tested on: multidrug resistant P. aeruginosa strain PA 5539; assay: MIC of antibiotics without and with P[5]a, Luria broth (sensitizing effect test); format: cell-based, Pseudomonas aeruginosa; conditions: with vs without P[5]a
Procedure: (§4) Values in blue, yellow and orange indicate the bacterium is categorized as “susceptible”, “intermediate susceptible” and “resistant”, respectively, according to the “Performance Standards for Antimicrobial Susceptibility Testing”, which is maintained by the Clinical and Laboratory Standards Institute.
(§5) So, it was tested whether P[5]a could sensitize (increase the efficacy of) already resistant P. aeruginosa strains PA 5834 (FIG. 4) and PA 5539 (FIG. 5), that are resistant to a wide variety of antibiotics. To test this, two MDR P. aeruginosa strains from clinical isolates were used. These isolates were obtained from patients in the Meilahti hospital (Helsinki, Finland). The antibiotics used, and their different mechanisms of actions, are described in Table 2.
as §1

P. aeruginosa PAO1 [7] = assay: Antibiotic resistance buildup, daily MIC over 14 consecutive days; format: cell-based, Pseudomonas aeruginosa
Excerpt: Area below the yellow line means that the bacterium is classified as susceptible to the antibiotic. The area in between yellow and red means that the bacterium is intermediate susceptible to the antibiotic. The area above the red line means that the bacterium is classified as resistant to the antibiotic (According to the “Performance Standards for Antimicrobial Susceptibility Testing”, which is maintained by the Clinical and Laboratory Standards Institute).
Because of this, a combined administration of P[5]a with a variety of antibiotics was tested. MIC values with two different antibiotics, meropenem and cefepime (FIG. 2) were tested, over a period of 14 consecutive days (which more than surpasses the length of normal treatments, 7-10 days), when administered together with and without 2.5 mM P[5]a.
In this experiment, the minimum inhibitory concentration MIC was analyzed daily for 14 consecutive days, and the highest MIC values (so the highest concentration of antibiotic where the bacteria still grew) was used for the next day. This way, the buildup of resistance over time can be monitored. In FIG. 2, the area below the yellow line means that the bacterium is classified as susceptible to the antibiotic, the area in between yellow and red means that the bacterium is intermediate susceptible to the antibiotic and the area above the red line means that the bacterium is classified as resistant to the antibiotic (According to the “Performance Standards for Antimicrobial Susceptibility Testing”, which is maintained by the Clinical and Laboratory Standards Institute).
as §2
The effect of P[5]a on the enhancement of the penetration of coadministered antibiotics having intracellular targets (aztreonam, cefepime, meropenem and tobramycin) was studied over 14-day period in a pathogenic Gram-negative bacterium, Pserudomonas aeruginosa, strain PA01. […] MIC values were categorized in three groups according to the Clinical and Laboratory Standards Institute: susceptible, intermediate susceptible and resistant.

[8] = tested on: multidrug resistant P. aeruginosa strain PA 5834; assay: MIC of antibiotics without and with P[5]a, Luria broth (sensitizing effect test); format: cell-based, Pseudomonas aeruginosa
Procedure: as §4, §5, §1

[9] = tested on: Pseudomonas aeruginosa 5827; assay: Resistance profile of strain (Table 3); format: cell-based; conditions: strain 5827
[10] = tested on: Pseudomonas aeruginosa 5832; assay: Resistance profile of strain (Table 3); format: cell-based; conditions: strain 5832
Excerpt: as §3

[11] = tested on: Pseudomonas aeruginosa 5542; assay: Resistance profile of strain (Table 3); format: cell-based; conditions: strain 5542 P. aeruginosa
Excerpt: as §3

[12] = tested on: Pseudomonas aeruginosa 2798 (ATCC 2798); assay: Resistance profile of strain (Table 3); format: cell-based; conditions: strain 2798 (ATCC 2798)
Excerpt: as §3

[13] = tested on: Pseudomonas aeruginosa 5834; assay: Resistance profile of strain (Table 3); format: cell-based; conditions: strain 5834
Excerpt: as §3

[14] = tested on: Pseudomonas aeruginosa 5550; assay: Resistance profile of strain (Table 3); format: cell-based; conditions: strain 5550
Excerpt: as §3

[15] = tested on: Pseudomonas aeruginosa 5539; assay: Resistance profile of strain (Table 3); format: cell-based; conditions: strain 5539

## C[N+](C)(C)CCOc1cc2c(OCC[N+](C)(C)C)cc1Cc1cc(OCC[N+](C)(C)C)c(cc1OCC[N+](C)(C)C)Cc1cc(OCC[N+](C)(C)C)c(cc1OCC[N+](C)(C)C)Cc1cc(OCC[N+](C)(C)C)c(cc1OCC[N+](C)(C)C)Cc1cc(OCC[N+](C)(C)C)c(cc1OCC[N+](C)(C)C)C2.[Br-].[Br-].[Br-].[Br-].[Br-].[Br-].[Br-].[Br-].[Br-].[Br-] [P[5]a, 4,9,14,19,24,26,28,30,32,34-Deca[2-(trimethylammonio)ethoxy]hexacyclo[21.2.2.2^3,6.2^8,11.2^13,16.2^18,21]pentatriaconta1(25),3,5,8,10,13,15,18,20,23,26,28,30,32,34-pentadecaene ⋅ 10bromide]
[1]
  interaction with LPS: strong interaction; also recorded: capable of interacting with multiple LPS particles
[2]
  sensitizing effects on amikacin, cefepime, ceftazidime and meropenem: In all cases the sensitizing effects were observed
Pseudomonas aeruginosa
  bacterial antibiotic resistance genes (MexCD-OprJ, MexAB-OprM, mexXY): significantly down-regulates
Pseudomonas aeruginosa; KEGG and GO gene sets
  gene sets associated with virulence factors (Biofilm, Quorum Sensing, Bioverdine biosynthetic process, Biosynthesis of Secondary Metabolites): downregulated
P. aeruginosa PAO1 [3]; 14-day period
  resistance development towards P[5]a (decrease of effectivity of toxin inhibition): does not encounter resistance development; also recorded: no observable decrease of effectivity
P. aeruginosa PAO1 [3]
  pyocyanin toxin formation: successfully suppressed
P. aeruginosa PAO1 [3]; throughout 14 days of P[5]a treatment
  bacterial viability: no decrease
P. aeruginosa PAO1 [3]; listed as P5a
  pyocyanin toxin formation: very efficient in suppressing
[4]
  biofilm formation: significantly reduced
[5]
  penetration and efficacy of coadministered antibiotics Amikacin, Cefepime, Ceftazidime and Meropenem: enhances
[6]
  sensitizing effect on antibiotics: sensitizing effect could be seen with nearly all antibiotics
P. aeruginosa PAO1 [7]
  direct antimicrobial properties: lacks direct antimicrobial properties
P. aeruginosa PAO1 [7]; 2.5 mM P[5]a, 14 consecutive days
  buildup of resistance to meropenem and cefepime when P[5]a is added: significantly reduced

## CO/N=C(\C(=O)N[C@@H]1C(=O)N2C(C(=O)[O-])=C(C[N+]3(C)CCCC3)CS[C@H]12)c1csc(N)n1 [cefepime, Cefepime]
[8]; with P[5]a
  susceptibility classification (CLSI): susceptible
[8]; without P[5]a
  susceptibility classification (CLSI): resistant
[9]
  Antibiotic resistance (category): resistant
  Antibiotic resistance (value given with the category, MIC): 32 µg
P. aeruginosa PAO1 [7]; Pseudomonas aeruginosa, PAO1, 96 h, after four days, highest concentration of antibiotic included
  MIC: 128 µg/mL (≈ 266 µM)
P. aeruginosa PAO1 [7]; coadministration of P[5]a with the antibiotic, 14-day period
  development of resistance by the pathogen to the respective antibiotic: greatly slowed
[10]
  Antibiotic resistance (category): Intermediate susceptible
  Antibiotic resistance (value given with the category, MIC): 8 µg
[11]
  Antibiotic resistance (category): resistant
  Antibiotic resistance (value given with the category, MIC): 32 µg
[12]
  Antibiotic resistance (category): Intermediate susceptible
[13]
  Antibiotic resistance (category): resistant
  Antibiotic resistance (value given with the category, MIC): cefepime 64 ug, ceftazidime 64 ug and meropenem 64 ug
[14]
  Antibiotic resistance (category): Intermediate susceptible
  Antibiotic resistance (value given with the category, MIC): 16 µg
[15]
  Antibiotic resistance (category): intermediate
  Antibiotic resistance (value given with the category, MIC): 8 µg

## CC(C)(O/N=C(\C(=O)N[C@@H]1C(=O)N2C(C(=O)[O-])=C(C[n+]3ccccc3)CS[C@H]12)c1csc(N)n1)C(=O)O [ceftazidime, Ceftazidime]
[8]; with P[5]a
  susceptibility classification (CLSI): susceptible
[8]; without P[5]a
  susceptibility classification (CLSI): resistant
[9]
  Antibiotic resistance (category): resistant
  Antibiotic resistance (value given with the category, MIC): 64 µg
[10]
  Antibiotic resistance (category): resistant
  Antibiotic resistance (value given with the category, MIC): 16 µg
[11]
  Antibiotic resistance (category): resistant
  Antibiotic resistance (value given with the category, MIC): 32 µg
[12]
  Antibiotic resistance (category): Aztreonam & Cefepime, Resistant to Ceftazidime, Cirpofloxacin,
[13]
  Antibiotic resistance (category): resistant
  Antibiotic resistance (value given with the category, MIC): cefepime 64 ug, ceftazidime 64 ug and meropenem 64 ug
[14]
  Antibiotic resistance (category): resistant
  Antibiotic resistance (value given with the category, MIC): 16 µg
[15]
  Antibiotic resistance (category): resistant
  Antibiotic resistance (value given with the category, MIC): 8 µg
